In patent US9884866B2, “Immunomodulators and immunomodulator conjugates” (REGENTS OF THE UNIVERSITY OF MINNESOTA, priority 2014, dated 2018):

Tested on: Bone marrow derived dendritic cells (BMDC)
Assay: Measurement of proinflammatory cytokines with cytometric bead assay in BMDC
Type: cell-based, C57BL/6 mice
Conditions: BMDC stimulated with 30 μM of compound for 3 days; supernatant
Procedure: Measurement of Proimflammatory Cytokines with Cytometric Bead Assay:
Bone marrow derived dendritic cells (BMDC) were generated by isolating a single cell suspension of marrow from the femur of C57BL/6 mice (6-8 weeks of age). Red blood cells were lysed with 0.83% NH4Cl, 0.1% KHCO3 and […] cells were seeded in each of well of a 6 well plate in complete RPMI media (Invitrogen, Grand Island, N.Y.), supplemented with mouse 20 ng/ml Granulocyte-Macrophage Colony Stimulating Factor (PeproTech, Rocky Hill, N.J.). After 6 days after culture, BMDC were stimulated with 30 μM of compound for 3 days. 25 μL of supernatant was then removed and assayed for TNFα, IL-12p40, IL-1β and IL-10 using a flow cytometric bead array according to the manufacturers' instructions (BD Bioscience, San Jose, Calif.). Controls were performed using the addition of media and carrier with no drug. Flow cytometry was performed on a FACS canto-II (BD Bioscience) and data were analyzed using Flowjo software (Tree Star, Inc. Ashland, Oreg.).

SMILES | IL-1b | IL-10 | IL-12/23p40 | TNF
CCCCc1nc2c(N)nc3cc(NS(=O)(=O)c4ccccc4)ccc3c2n1CC(C)O (centres unmarked) [Compound 543] | 128 ± 13 pg/mL | 151 ± 24 pg/mL | 57 ± 8 pg/mL | 725 ± 77 pg/mL
CCCCc1nc2c(N)nc3cc(S(=O)(=O)c4ccccc4)ccc3c2n1CC(C)O (centres unmarked) [Compound 548, 4-amino-2-butyl-1-(2-hydroxypropyl)-7-benzenesulphonyl-1H-imidazo[4,5-c]quinoline] | 19 ± 2 pg/mL | 29 ± 2 pg/mL | 176 ± 25 pg/mL | 1456 ± 111 pg/mL
